Measurements from patent publication US11801266B2, “Methods of using anti-MIR126 compounds” (CITY OF HOPE, priority 2019, dated 2023).

Experiments:
normal HSCs = assay: Cell cycling (EdU and DAPI) in human normal HSCs; format: cell-based; conditions: 500 nM, compared to CpG-scrRNA-treated controls
Protocol: (§1) After transduction performed as above, GFP+ cells selected at 48 h were exposed to NIL (2 μM and 5 μM, Novartis) for another 72 h, and analyzed using assays for cell growth, apoptosis, cell cycle, CFC and CFC replating. Human HSCs and mouse LT-HSCs were also treated with CpG-miR-126 inhibitor or CpG-scrRNA (500 nM), with or without NIL (5 μM), for 72 h and analyzed for cell growth, apoptosis, cell cycle and CFC. Human CML HSCs co-cultured with control or miR-126 KD HUVECs and mouse CML LT-HSCs co-cultured with control or miR-126 KD ECs for 96 h, with or without NIL (5 μM), were also analyzed for cell growth, apoptosis, cell cycle and CFC. Cell growth was measured by Lumino Glo (Promega). Apoptosis was measured by labeling cells with Annexin V-PE or FITC or APC and 4, 6-diamidino-2-phenylindole (DAPI) (all from BD-PharMingen, San Diego, Calif.) and analyzed by flow cytometry. Cell cycle was analyzed by Ki-67-Alexa Fluor 647 (B56, BD) and DAPI labeling based on the manufacturer's protocol. Cells were also exposed to EdU (C10640, Invitrogen) for 2 h and EdU staining was analyzed according to the manufacturer's protocol. Cell proliferation was also measured by CFSE staining (Molecular probes) based on the manufacturer's protocol. […]

CML HSCs = assay: Cell cycling (EdU and DAPI) in human CML HSCs; format: cell-based; conditions: 500 nM, compared to CpG-scrRNA-treated controls
Protocol: as §1

normal BM LT-HSCs = assay: Cell cycling in mouse normal BM LT-HSCs; format: cell-based; conditions: 500 nM, 72 h
Protocol: as §1

CML BM LT-HSCs = assay: Cell cycling in mouse CML BM LT-HSCs; format: cell-based; conditions: 500 nM, 72 h
Protocol: as §1

miR-126 = assay: In vivo miR-126 down-regulation in sorted LT-HSCs and ECs; design: species or system mouse; conditions: normal and CML mice, 5 mg/kg/day iv daily for 3 days; QPCR
Protocol: Next, we evaluated CpG-miR-126 inhibitor-Cy3 uptake in mouse LT-HSCs and ECs in vitro and in vivo. […]
To measure the miRNA and mRNA expression, total RNA was extracted using the miRNeasy Mini Kit (Qiagen, Valencia, Calif.). For miRNA expression, reverse transcription using MultiScribe™ Reverse Transcriptase and Q-PCR analysis using Taqman assays (Applied Biosystems) were performed according to the manufacturer's protocol. RNU44 and snoRNA234 was used as internal controls for human and mouse miRNA respectively. For mRNA expression, first-strand cDNA was synthesized using the SuperScript III First-Strand Kit and then QPCR was performed using TaqMan Gene Expression Assays (Thermo Fisher). BCR-ABL expression in human and mouse samples were measured with primer and probe sequences for BCR-ABL (B3A2 or B2A2), as previously described^46. Results are presented as log 2-transformed ratio according to the 2−ΔCt method (ΔCt=Ct of target−Ct of reference).

normal hematopoiesis = assay: Transplantation of BM cells from treated WT B6 mice into recipient mice; format: in vivo, mouse; conditions: recipients of BM cells from donor mice treated with scrRNA or inhibitor, 16 weeks after transplantation
CML LSCs = assay: In vivo treatment of CML mice (SCLtTA/BCR-ABL BM cells transplanted into congenic B6 mice); design: species or system mouse
Protocol: Next, we transplanted BM cells from SCLtTA/BCR-ABL mice (CD45.2) into congenic B6 mice (CD45.1). Following confirmation of CML development at 4 weeks after transplantation, mice were treated as above with scrRNA, inhibitor, scrRNA+NIL, or inhibitor+NIL for 3 weeks.

WT B6 mice = assay: Hematologic toxicity in normal WT B6 mice
Protocol: We treated WT B6 mice with CpG-scrRNA (scrRNA) or CpG-miR-126 inhibitor (inhibitor, 5 mg/kg/day i.v.) for 3 weeks, after which we collected their BM cells and transplanted them into recipient mice (3×10^5 BM cells/mouse).
To determine the in vivo effect of the CpG-miR-126 inhibitor on normal hematopoiesis, normal mice were treated with scrRNA or inhibitor for 3 weeks, followed by assessment of WBC, RBC, PLT counts in PB and BM subpopulations in BM.

[1] = WT B6 mice, 5 mg/kg/day i.v. for 3 weeks, compared with scrRNA-treated control mice

5′ G*G*T GCA TCG ATG CAGG*G*G* G*G xxxxx mCmGmC mAmUmU mAmUmU mAmCmU mCmAmC mGmGmU mAmCmG mA-3′ (GGTGCATCGATGCAGGGGGGCGCAUUAUUACUCACGGUACGA; CpG ODN, C3 linkers, phosphorothioate, 2'OMe; (1)..(2) phosphorothioation; (2)..(3) phosphorothioation; (16)..(17) phosphorothioation; (17)..(18) phosphorothioation; (18)..(19) phosphorothioation; (19)..(20) phosphorothioation; (20)..(21) Five C3 carbon chain linkers, ((CH2)3)5; modified_base (21)..(21) cm; modified_base (22)..(22) gm; modified_base (23)..(23) cm; modified_base (24)..(24) 2′-O-Methyladenosine; modified_base (25)..(26) um; mod) [CpG-miR-126 inhibitor]
cell cycling (normal HSCs): increased cell cycling | cell cycling (CML HSCs): increased cell cycling | cell cycling (normal BM LT-HSCs): increased cell cycling | cell cycling (CML BM LT-HSCs): increased cell cycling | miR-126 down-regulation in sorted LT-HSCs and ECs (miR-126): significant miR-126 down-regulation | donor LT-HSC numbers in BM (normal hematopoiesis): no significant differences | donor cell engraftment in PB, BM or spleen (normal hematopoiesis): no significant differences | miR-126 levels in total ECs, Sca-1+ECs and Sca-1-ECs from BM (CML LSCs; CML mice treated 3 weeks, compared with scrRNA-treated mice): significantly lower miR-126 levels | mice that survived (CML LSCs; CML mice, 3 weeks of treatment, followed 60 days after treatment discontinuation): 50% | numbers of ECs in the BM (WT B6 mice; [1]): no significant differences | numbers of LT-HSCs in the BM (WT B6 mice; [1]): no significant differences | numbers of WBCs in PB (WT B6 mice; [1]): no significant differences | numbers of mononuclear cells in the BM (WT B6 mice; [1]): no significant differences | numbers of platelets (PLT) in PB (WT B6 mice; [1]): no significant differences | numbers of red blood cells (RBC) in PB (WT B6 mice; [1]): increased | pre-clinical toxicity for normal hematopoiesis (WT B6 mice; overall conclusion, WT B6 mice treated for 3 weeks): lacks pre-clinical toxicity for normal hematopoiesis
